Results published in US12247015B2, “3-amino-4H-benzo[e][1,2,4]thiadiazine 1,1-dioxide derivatives as inhibitors of MRGX2” (Solent Therapeutics, LLC, priority 2019, dated 2025).

How the values were obtained:
[1] = target: hMRGX2 (CHO-K1 cells overexpressing MRGX2) (Homo sapiens (Human), UniProt Q96LB1); assay: In vitro inhibition (EC50) of intracellular calcium flux, FLIPR Tetra, substance P stimulation; format: cell-based; conditions: stimulated with MRGX2 ligand substance P, FLIPR Calcium 5, read-out: hMRGX2 Cellular Potency (pEC50) (converted)
Chain of hMRGX2 (CHO-K1 cells overexpressing MRGX2) (Q96LB1 whole entry): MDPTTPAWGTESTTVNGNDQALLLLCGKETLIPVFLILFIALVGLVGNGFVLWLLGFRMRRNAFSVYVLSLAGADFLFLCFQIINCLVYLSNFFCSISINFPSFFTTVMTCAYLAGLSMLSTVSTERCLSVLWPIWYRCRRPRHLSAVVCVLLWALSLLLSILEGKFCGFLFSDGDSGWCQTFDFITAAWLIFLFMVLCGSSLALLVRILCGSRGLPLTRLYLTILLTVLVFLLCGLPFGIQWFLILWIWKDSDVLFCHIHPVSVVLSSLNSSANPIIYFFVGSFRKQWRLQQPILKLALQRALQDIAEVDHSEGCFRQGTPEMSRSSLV
How it was run: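 CHO-K1 cells overexpressing human MRGX2, loaded with Calcium 5 dye for 30 min at 37 °C, then given compound (11-point, top 10 μM).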

human MRGX2 receptor = human MRGX2 receptor (Homo sapiens (Human), UniProt Q96LB1); assay: In vitro radioligand binding assay (Kd); conditions: membrane from SF9 cells overexpressing human MRGX2; 3H-labeled ligand; pH 7.4, room temperature, 60 minutes
Chain of human MRGX2 receptor (Q96LB1 whole entry): as above
Description: In vitro Radioligand Binding Assay (Kd)
Equilibrium dissociation constants, Kd, for many of the compounds described in the Examples section (“test compounds”) are determined in the presence cellular membrane prepared from SF9 cell lines overexpressing the human MRGX2 receptor. The assay is carried out in a 96-well plate (Greiner V-Bottom #651201). […] The assay mixtures, which comprise MRGX2 receptor, radiolabeled ligand and test compound, are incubated at room temperature (˜22° C.) for 60 minutes to reach equilibrium. After incubation, the assay mixtures are collected on a filter mat (Filtermat A, Perkin Elmer) using a cell harvester (Harvester 96, TOMTEC). The filter mat is completely dried. A solid scintillant (Meltilex, Perkin Elmer) is added to each filter membrane and the level of radioactivity (“Signal”) from each well (assay mixture) is recorded using a scintillation counter (Trilux Microbeta, PerkinElmer). Kd is determined by curve-fitting the dose response data ([I], Signal) for each set of samples to the equation,
[formula] where [I] is the concentration of the test compound. The data are reported as pKd

Compound	EC50 [1] [nM]	hMRGX2 Binding Affinity (pKd) (human MRGX2 receptor)
O=S1(=O)N=C(NCC(F)F)Nc2c(-c3cccc(F)c3Cl)cccc21 [Example 34, 5-(2-chloro-3-fluorophenyl)-3-((2,2-difluoroethyl)amino)-4H-benzo[e][1,2,4]thiadiazine 1,1-dioxide]	38.5	7.025
O=S1(=O)N=C(NCc2ncccc2F)Nc2c(-c3ccccc3Cl)cc(F)cc21 [Example 16, 5-(2-chlorophenyl)-7-fluoro-3-(((3-fluoropyridin-2-yl)methyl)amino)-4H-benzo[e][1,2,4]thiadiazine 1,1-dioxide]	10.3	7.5
COCCNC1=NS(=O)(=O)c2cccc(-c3ccccc3Cl)c2N1 [Example 35, 5-(2-chlorophenyl)-3-((2-methoxyethyl)amino)-4H-benzo[e][1,2,4]thiadiazine 1,1-dioxide]	92	4.7
COCCNC1=NS(=O)(=O)c2cccc(-c3cccc(F)c3Cl)c2N1 [Example 2, 5-(2-chloro-3-fluorophenyl)-3-((2-methoxyethyl)amino)-4H-benzo[e][1,2,4]thiadiazine 1,1-dioxide]	51.9	6.984
CNC1=NS(=O)(=O)c2cccc(-c3cccc(F)c3Cl)c2N1 [Example 1, 5-(2-chloro-3-fluorophenyl)-3-(methylamino)-4H-benzo[e][1,2,4]thiadiazine 1,1-dioxide]	69.3	6.724

Other lines, results leading:

EC50 [1] [nM]	hMRGX2 Binding Affinity (pKd) (human MRGX2 receptor)	Compound
29.4	7.22	O=S1(=O)N=C(NCc2ncccn2)Nc2c(-c3cccc(F)c3Cl)cccc21 [Example 66, 5-(2-chloro-3-fluorophenyl)-3-((pyrimidin-2-ylmethyl)amino)-4H-benzo[e][1,2,4]thiadiazine 1,1-dioxide]
132	6.52	CC(C)c1ccc(NC2=NS(=O)(=O)c3cccc(-c4cnn(C)c4)c3N2)cc1 [Example 107, 3-((4-isopropylphenyl)amino)-5-(1-methyl-1H-pyrazol-4-yl)-4H-benzo[e][1,2,4]thiadiazine 1,1-dioxide]
78.2	6.545	COCCNC1=NS(=O)(=O)c2cccc(-c3cccc(F)c3C#N)c2N1 [Example 125, 2-fluoro-6-(3-((2-methoxyethyl)amino)-1,1-dioxido-4H-benzo[e][1,2,4]thiadiazin-5-yl)benzonitrile]
474	5.95	COCc1cccc2c1NC(Nc1ccc(C(C)C)cc1)=NS2(=O)=O [Example 169, 3-((4-isopropylphenyl)amino)-5-(methoxymethyl)-4H-benzo[e][1,2,4]thiadiazine 1,1-dioxide]
10.7	7.055	O=S1(=O)N=C(NCc2nccs2)Nc2c(-c3cccc(F)c3Cl)cccc21 [Example 65, 5-(2-chloro-3-fluorophenyl)-3-((thiazol-2-ylmethyl)amino)-4H-benzo[e][1,2,4]thiadiazine 1,1-dioxide]
